# Experimental data: publication PMC12827894, “Structure-guided design of picomolar-level macrocyclic TRPC5 channel inhibitors with antidepressant activity” (Acta Pharmaceutica Sinica. B, 2025)
# Where a SMILES comes first, the peptide text is derived from it. Bridges are numbered along the chain shown (N, C = ends).
# Assays:
# TRPC5 = target: T1, TRPC5 (Homo sapiens, UniProt Q9UL62); assay: cell-based; conditions: for IC50: HEK293T, 100 nmol/L Englerin A, read-out: IC50, inhibition of TRPC5, calcium flux assay; for TRPC5 inhibitory activity in words (SAR): relative to compound 6
# T1 sequence (Q9UL62 1-973): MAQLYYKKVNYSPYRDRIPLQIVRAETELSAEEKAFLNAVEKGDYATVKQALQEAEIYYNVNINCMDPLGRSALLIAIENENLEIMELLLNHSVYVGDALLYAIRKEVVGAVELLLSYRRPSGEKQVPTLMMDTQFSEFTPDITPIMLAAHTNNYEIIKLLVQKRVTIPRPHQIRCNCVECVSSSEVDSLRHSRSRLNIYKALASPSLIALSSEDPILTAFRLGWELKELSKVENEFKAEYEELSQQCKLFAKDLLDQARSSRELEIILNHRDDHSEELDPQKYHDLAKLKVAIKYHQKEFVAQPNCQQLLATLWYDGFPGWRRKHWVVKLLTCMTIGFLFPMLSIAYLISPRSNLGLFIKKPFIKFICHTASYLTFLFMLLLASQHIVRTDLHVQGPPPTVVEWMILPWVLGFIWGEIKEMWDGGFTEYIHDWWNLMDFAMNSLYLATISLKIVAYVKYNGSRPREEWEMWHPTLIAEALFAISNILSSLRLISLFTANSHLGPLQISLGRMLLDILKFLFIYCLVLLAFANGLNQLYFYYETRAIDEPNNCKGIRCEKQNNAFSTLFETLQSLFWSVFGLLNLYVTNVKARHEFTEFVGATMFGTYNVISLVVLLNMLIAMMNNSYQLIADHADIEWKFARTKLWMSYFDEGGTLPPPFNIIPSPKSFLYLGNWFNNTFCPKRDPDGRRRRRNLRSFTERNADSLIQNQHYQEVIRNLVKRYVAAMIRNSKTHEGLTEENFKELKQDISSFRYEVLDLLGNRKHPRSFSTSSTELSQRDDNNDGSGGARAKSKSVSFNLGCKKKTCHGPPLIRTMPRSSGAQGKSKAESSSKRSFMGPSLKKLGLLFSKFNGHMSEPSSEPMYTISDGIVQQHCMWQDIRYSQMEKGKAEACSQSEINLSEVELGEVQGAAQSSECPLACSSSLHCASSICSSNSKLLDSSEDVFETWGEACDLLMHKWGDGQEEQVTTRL
# NR1/NR2B = target: T2, NR1/NR2B (Homo sapiens, UniProt Q05586+Q13224); assay: SafetyOne44 panel ion channels: NR1/NR2B; type: cell-based
# T2 construct: ICE Bioscience ICESTP SafetyOne44 Panel
# T2 sequence (Q13224 27-1484, other chains not shown): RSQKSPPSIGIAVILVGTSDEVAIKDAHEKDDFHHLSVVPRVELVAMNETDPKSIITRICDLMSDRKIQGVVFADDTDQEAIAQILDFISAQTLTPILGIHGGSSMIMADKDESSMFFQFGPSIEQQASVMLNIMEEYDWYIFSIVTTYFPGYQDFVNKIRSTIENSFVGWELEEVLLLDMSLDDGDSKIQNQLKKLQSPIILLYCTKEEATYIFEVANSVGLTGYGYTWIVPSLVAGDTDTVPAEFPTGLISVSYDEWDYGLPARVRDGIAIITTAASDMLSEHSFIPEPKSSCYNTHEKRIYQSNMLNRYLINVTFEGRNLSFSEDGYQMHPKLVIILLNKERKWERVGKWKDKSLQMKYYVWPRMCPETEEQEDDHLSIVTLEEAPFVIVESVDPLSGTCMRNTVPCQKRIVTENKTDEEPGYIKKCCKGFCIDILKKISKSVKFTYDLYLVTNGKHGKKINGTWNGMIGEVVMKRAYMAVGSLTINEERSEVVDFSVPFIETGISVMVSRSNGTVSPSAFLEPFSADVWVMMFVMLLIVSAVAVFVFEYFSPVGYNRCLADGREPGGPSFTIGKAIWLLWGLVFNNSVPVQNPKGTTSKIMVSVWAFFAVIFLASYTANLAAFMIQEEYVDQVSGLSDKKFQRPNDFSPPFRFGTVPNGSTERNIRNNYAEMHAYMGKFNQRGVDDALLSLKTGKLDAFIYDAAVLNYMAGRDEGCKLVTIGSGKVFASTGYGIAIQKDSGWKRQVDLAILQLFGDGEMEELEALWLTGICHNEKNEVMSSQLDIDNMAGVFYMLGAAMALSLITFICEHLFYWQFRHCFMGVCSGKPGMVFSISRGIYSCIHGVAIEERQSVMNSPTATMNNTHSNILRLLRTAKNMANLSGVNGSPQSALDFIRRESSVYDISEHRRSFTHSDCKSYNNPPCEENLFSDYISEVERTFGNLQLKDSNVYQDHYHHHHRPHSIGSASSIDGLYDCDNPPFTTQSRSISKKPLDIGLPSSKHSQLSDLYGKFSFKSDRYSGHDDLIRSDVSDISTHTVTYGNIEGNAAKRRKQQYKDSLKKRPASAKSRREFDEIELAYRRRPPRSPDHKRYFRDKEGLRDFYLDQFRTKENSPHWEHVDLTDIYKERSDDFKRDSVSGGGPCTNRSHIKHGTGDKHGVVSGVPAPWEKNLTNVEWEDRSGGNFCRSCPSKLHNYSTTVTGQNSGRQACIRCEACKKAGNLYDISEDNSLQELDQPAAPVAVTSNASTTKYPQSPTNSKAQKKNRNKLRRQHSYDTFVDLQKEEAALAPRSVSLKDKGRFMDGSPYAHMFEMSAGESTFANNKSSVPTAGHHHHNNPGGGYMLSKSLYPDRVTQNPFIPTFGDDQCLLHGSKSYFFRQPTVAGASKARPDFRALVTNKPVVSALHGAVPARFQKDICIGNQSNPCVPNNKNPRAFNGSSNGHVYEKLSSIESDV
# 5-HT1B = target: T3, 5-HT1B (Homo sapiens, UniProt P28222); assay: cell-based; conditions: agonist mode, read-out: Agonist Reference Compound EC50
# T3 construct: purchased ICE Bioscience ICESTP SafetyOne44 Panel
# T3 sequence (P28222 whole entry): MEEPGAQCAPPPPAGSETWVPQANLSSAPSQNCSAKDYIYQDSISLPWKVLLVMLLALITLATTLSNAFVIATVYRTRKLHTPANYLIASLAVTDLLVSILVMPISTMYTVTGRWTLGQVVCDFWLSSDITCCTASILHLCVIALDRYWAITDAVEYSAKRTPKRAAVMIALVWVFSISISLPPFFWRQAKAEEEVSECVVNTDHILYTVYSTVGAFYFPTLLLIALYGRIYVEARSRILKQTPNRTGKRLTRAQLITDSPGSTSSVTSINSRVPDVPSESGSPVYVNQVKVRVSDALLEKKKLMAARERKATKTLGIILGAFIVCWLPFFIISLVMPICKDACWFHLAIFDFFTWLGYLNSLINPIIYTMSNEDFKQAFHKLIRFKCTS
# 5-HT2B = target: T4, 5-HT2B (Homo sapiens, UniProt P41595); assay: cell-based; type: cell-based; conditions: read-out: Antagonist Reference Compound IC50
# T4 construct: purchased ICE Bioscience ICESTP SafetyOne44 Panel
# T4 sequence (P41595 whole entry): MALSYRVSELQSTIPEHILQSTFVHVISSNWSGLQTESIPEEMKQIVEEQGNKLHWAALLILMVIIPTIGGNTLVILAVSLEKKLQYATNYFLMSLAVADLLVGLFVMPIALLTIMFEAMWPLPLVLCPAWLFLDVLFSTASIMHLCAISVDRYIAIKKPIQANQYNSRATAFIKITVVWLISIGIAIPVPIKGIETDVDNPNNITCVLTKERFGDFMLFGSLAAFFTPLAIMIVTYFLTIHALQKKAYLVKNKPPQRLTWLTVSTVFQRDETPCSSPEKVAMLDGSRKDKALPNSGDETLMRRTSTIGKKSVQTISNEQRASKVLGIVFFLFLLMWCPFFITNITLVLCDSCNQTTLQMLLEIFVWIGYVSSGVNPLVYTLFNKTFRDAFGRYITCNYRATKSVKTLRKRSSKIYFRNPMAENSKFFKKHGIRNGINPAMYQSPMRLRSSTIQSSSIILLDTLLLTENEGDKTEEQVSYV
# ETA = target: T5, ETA (Homo sapiens, UniProt P25101); assay: SafetyOne44 panel: ETA; type: cell-based
# T5 construct: purchased ICE Bioscience ICESTP™ SafetyOne44 Panel
# T5 sequence (P25101 21-427): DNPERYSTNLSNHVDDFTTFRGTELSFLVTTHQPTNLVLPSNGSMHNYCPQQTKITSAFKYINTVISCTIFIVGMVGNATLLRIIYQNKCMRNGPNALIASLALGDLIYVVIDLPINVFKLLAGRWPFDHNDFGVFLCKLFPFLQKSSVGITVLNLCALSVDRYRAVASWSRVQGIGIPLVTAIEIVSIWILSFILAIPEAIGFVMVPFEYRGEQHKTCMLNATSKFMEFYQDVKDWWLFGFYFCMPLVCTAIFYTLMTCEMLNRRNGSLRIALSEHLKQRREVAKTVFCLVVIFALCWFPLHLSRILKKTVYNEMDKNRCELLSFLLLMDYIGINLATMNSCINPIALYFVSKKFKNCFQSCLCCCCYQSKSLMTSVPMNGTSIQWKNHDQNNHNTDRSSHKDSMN
# CCK1 = target: T6, CCK1 (Homo sapiens, UniProt P32238); assay: SafetyOne44 panel: CCK1; type: cell-based; conditions: CCK1, antagonist mode; read-out: Antagonist Reference Compound IC50
# T6 construct: purchased ICE Bioscience ICESTP™ SafetyOne44 Panel
# T6 sequence (P32238 1-428): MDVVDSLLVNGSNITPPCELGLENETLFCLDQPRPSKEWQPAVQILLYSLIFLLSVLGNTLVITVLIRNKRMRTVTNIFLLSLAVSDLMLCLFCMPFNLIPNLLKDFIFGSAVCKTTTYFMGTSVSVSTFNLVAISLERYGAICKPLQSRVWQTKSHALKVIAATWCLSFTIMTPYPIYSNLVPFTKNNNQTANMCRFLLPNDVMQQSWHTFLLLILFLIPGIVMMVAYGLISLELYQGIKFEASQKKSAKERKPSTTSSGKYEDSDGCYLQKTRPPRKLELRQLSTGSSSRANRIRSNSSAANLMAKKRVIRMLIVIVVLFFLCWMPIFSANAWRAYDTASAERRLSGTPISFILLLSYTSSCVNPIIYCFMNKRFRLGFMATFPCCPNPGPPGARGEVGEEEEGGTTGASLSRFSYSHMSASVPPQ
# IKs = target: T7, IKs (Homo sapiens, UniProt P51787); assay: SafetyOne44 panel ion channels: IKs; type: cell-based
# T7 construct: ICE Bioscience ICESTP SafetyOne44 Panel
# nAChRα4β2 = target: T8, nAChRα4β2 (Homo sapiens, UniProt P17787+P43681); assay: SafetyOne44 panel ion channels: nAChRα4β2; type: cell-based; conditions: nAChRα4β2, antagonist mode; read-out: Antagonist Reference Compounds IC50
# T8 construct: ICE Bioscience ICESTP SafetyOne44 Panel
# H2 = target: T9, H2 (Homo sapiens, UniProt P25021); assay: SafetyOne44 panel: H2; type: cell-based; conditions: H2, antagonist mode; read-out: Antagonist Reference Compound IC50
# T9 construct: purchased ICE Bioscience ICESTP™ SafetyOne44 Panel
# T9 sequence (P25021 whole entry): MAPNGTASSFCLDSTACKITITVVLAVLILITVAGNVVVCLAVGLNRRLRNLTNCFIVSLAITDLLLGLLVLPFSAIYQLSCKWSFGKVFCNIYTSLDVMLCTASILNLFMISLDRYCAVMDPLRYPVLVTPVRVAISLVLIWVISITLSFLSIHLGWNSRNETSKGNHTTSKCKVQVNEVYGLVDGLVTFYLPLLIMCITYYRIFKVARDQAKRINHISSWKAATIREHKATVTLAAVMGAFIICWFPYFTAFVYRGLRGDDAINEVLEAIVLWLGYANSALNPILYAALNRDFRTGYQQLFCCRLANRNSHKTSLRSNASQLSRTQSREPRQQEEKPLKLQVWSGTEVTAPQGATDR
# DAT = target: T10, DAT (Homo sapiens, UniProt Q01959); assay: SafetyOne44 panel: DAT; type: cell-based; conditions: read-out: Antagonist Reference Compound IC50
# T10 construct: purchased ICE Bioscience ICESTP™ SafetyOne44 Panel
# T10 sequence (Q01959 whole entry): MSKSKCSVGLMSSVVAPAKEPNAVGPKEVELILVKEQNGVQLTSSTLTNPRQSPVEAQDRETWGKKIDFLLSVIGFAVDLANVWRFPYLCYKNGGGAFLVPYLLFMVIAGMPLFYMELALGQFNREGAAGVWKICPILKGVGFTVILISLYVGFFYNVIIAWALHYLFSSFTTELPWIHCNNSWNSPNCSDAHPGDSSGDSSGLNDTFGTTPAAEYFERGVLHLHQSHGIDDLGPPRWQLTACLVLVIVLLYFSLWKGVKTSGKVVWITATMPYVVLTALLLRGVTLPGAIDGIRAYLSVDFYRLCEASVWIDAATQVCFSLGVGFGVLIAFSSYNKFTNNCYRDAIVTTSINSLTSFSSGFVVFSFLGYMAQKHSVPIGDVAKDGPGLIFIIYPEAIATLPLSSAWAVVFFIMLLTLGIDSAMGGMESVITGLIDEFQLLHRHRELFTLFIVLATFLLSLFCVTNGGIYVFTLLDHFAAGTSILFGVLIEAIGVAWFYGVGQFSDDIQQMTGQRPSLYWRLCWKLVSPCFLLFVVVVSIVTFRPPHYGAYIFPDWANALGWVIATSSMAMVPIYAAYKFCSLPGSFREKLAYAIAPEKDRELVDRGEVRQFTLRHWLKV
# NET = target: T11, NET (Homo sapiens, UniProt P23975); assay: SafetyOne44 panel: NET; type: cell-based
# T11 construct: ICE Bioscience ICESTP SafetyOne44 Panel
# T11 sequence (P23975 whole entry): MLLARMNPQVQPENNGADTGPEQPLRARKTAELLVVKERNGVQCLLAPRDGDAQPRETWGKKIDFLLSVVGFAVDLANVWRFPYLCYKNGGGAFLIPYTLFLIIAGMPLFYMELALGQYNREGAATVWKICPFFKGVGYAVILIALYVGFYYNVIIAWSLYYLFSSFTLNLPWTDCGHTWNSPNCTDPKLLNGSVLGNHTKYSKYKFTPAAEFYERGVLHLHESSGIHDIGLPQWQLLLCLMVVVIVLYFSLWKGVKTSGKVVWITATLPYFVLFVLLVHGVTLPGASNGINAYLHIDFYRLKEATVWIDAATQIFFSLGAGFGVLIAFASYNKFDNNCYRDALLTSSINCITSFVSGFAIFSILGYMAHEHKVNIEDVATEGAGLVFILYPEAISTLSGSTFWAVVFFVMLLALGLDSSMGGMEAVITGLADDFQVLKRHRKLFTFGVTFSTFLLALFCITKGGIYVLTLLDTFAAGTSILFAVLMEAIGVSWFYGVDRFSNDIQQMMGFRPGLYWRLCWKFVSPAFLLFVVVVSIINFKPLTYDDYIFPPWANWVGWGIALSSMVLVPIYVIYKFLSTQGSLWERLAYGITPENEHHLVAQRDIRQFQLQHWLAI
# 5-HTT = target: T12, 5-HTT (Homo sapiens, UniProt P31645); assay: SafetyOne44 panel: 5-HTT; type: cell-based; conditions: read-out: Antagonist Reference Compound IC50
# T12 construct: purchased ICE Bioscience ICESTP™ SafetyOne44 Panel
# LCK = target: T13, LCK (Homo sapiens, UniProt P06239); assay: biochemical; conditions: read-out: Antagonist Reference Compound IC50
# T13 construct: purchased ICE Bioscience ICESTP™ SafetyOne44 Panel
# T13 sequence (P06239 whole entry): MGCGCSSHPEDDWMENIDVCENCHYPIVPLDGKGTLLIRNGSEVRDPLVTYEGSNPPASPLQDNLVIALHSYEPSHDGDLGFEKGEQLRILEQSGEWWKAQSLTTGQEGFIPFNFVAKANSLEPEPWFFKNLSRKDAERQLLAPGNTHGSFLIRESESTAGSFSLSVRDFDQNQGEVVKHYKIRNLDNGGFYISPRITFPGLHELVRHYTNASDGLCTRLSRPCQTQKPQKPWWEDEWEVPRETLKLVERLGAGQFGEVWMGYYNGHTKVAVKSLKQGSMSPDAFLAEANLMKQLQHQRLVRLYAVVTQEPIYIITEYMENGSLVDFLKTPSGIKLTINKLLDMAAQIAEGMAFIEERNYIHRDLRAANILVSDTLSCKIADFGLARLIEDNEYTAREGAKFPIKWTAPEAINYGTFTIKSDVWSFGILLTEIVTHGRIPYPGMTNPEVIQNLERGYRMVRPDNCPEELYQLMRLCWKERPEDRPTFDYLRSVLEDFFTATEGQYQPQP
compound,measurement,setting,value
CC(O)CCn1c(=O)c2c3nc(n2Cc2ccc(Cl)cc2)Oc2cccc(c2)OCCCCCCn3c1=O (stereo not drawn) [compound 21],IC50,TRPC5,10 nM
same,TRPC5 inhibitory activity in words (SAR),TRPC5; calcium flux,tolerated
"NC(CCCP(=O)(O)O)C(=O)O [D-AP5, reference compound]",Antagonist Reference Compounds % Inh,"NR1/NR2B; NR1/NR2B, antagonist mode",87.44%
CCCn1c2nc3c1c(=O)n(CCCO)c(=O)n3CCCCCCOc1cccc(c1)O2 [compound 12],IC50,TRPC5,3500 nM
same,fold decrease in activity (vs compound 6),"TRPC5; calcium flux, SAR",over 1000 fold
"COc1ccc2[nH]cc(C3=CCNCC3)c2c1 [RU 24969, reference compound]",EC50,5-HT1B,4.25 nM
O=c1c2c3nc(n2Cc2ccc(Cl)cc2)Oc2cccc(c2)OCCNCCCn3c(=O)n1CCCO [compound 19],IC50,TRPC5,840 nM
same,TRPC5 inhibitory activity in words (SAR),TRPC5; calcium flux,reduced activity
"CC(C)c1cc(-c2ccc(F)c3ccccc23)nc(N)n1 [RS-127445, reference compound]",IC50,5-HT2B,0.972 nM
O=c1c2c3nc(n2Cc2ccc(Cl)cc2)Oc2cccc(c2)COCCOCCn3c(=O)n1CCCO [compound 18],IC50,TRPC5,170 nM
same,fold decrease in activity (vs compound 6),"TRPC5; calcium flux, SAR",100 fold
O=c1c2c3nc(n2Cc2ccc(Cl)cc2)Oc2cccc(c2)OCCCCCCn3c(=O)n1CC(O)CO (stereo not drawn) [compound 23],IC50,TRPC5,790 nM
"CCCNS(=O)(=O)Nc1ncnc(OCCOc2ncc(Br)cn2)c1-c1ccc(Br)cc1 [Macitentan, reference compound]",IC50,"ETA; ETA, antagonist mode, read-out: Antagonist Reference Compound IC50",3.29 nM
O=c1c2c3nc(n2CCC(F)(F)F)Oc2cccc(c2)OCCCCCCn3c(=O)n1CCCO [compound 13],IC50,TRPC5,1200 nM
same,fold decrease in activity (vs compound 6),"TRPC5; calcium flux, SAR",over 1000 fold
O=c1c2c3nc(n2Cc2ccc(Cl)cc2)Oc2cncc(c2)OCCCCCCn3c(=O)n1CCCO [compound 11],IC50,TRPC5,0.08 nM
same,fold increase in activity (vs compound 6),"TRPC5; calcium flux, SAR",about 10 fold
"CC[C@H](C)[C@H](NC(=O)[C@H](CC(=O)O)NC(=O)[C@H](CC(C)C)NC(=O)[C@H](Cc1cnc[nH]1)NC(=O)[C@@H]1CSSC[C@H](N)C(=O)N[C@@H](CO)C(=O)N[C@H]2CSSC[C@H](NC(=O)[C@H](CCC(=O)O)NC(=O)[C@H](CCCCN)NC(=O)[C@H](CC(=O)O)NC(=O)[C@H](CC(C)C)NC(=O)[C@H](Cc3c[nH]c4ccccc34)NC(=O)[C@H](CO)NC(=O)[C@H](CO)NC2=O)C(=O)N[C@@H](C(C)C)C(=O)N[C@@H](Cc2ccc(O)cc2)C(=O)N[C@@H](Cc2ccccc2)C(=O)N1)C(=O)N[C@H](C(=O)N[C@@H](Cc1c[nH]c2ccccc12)C(=O)O)[C@@H](C)CC [Endothelin 2, reference compound] (H-CSCSSWLDKECVYFCHLDIIW-OH; disulfide 1-15, 3-11)",EC50,ETA,1.89 nM
O=c1c2c3nc(n2Cc2ccc(Cl)cc2)Oc2ccc(Cl)c(c2)OCCCCCCn3c(=O)n1CCCO [compound 9],IC50,TRPC5,97.5 nM
same,fold decrease in activity (vs compound 6),"TRPC5; calcium flux, SAR",about 90 fold
"CCCCCN(CCCOC)C(=O)C(CCC(=O)O)NC(=O)c1ccc(Cl)c(Cl)c1 (stereo not drawn) [Loxiglumide, reference compound]",IC50,CCK1,353 nM
"CCS(=O)(=O)N(C)[C@H]1c2cc(C#N)ccc2OC(C)(C)[C@@H]1O [293B, reference compound]",Antagonist Reference Compounds % Inh,IKs,90.96%
O=c1c2c3nc(n2Cc2ccc(Cl)cc2)Oc2cccc(c2)OCCCCCCn3c(=O)n1CC(F)(F)CO [compound 24],IC50,TRPC5,440 nM
"CCN(CC)CCOC(=O)C(c1ccccc1)c1ccccc1 [Adiphenine, reference compound]",IC50,nAChRα4β2,547 nM
O=c1c2c3nc(n2Cc2ccc(Cl)cc2)Oc2cccc(c2)OCCCCCn3c(=O)n1CCCO [compound 5],IC50,TRPC5,28.4 nM
CC(C)(O)CCn1c(=O)c2c3nc(n2Cc2ccc(Cl)cc2)Oc2cccc(c2)OCCCCCCn3c1=O [compound 20],IC50,TRPC5,10000 nM
"CNC(=C[N+](=O)[O-])NCCSCc1csc(CN(C)C)n1 [Nizatidine, reference compound]",IC50,H2,112 nM
"NCC(=O)O [Glycine, reference compound]",EC50,NR1/NR2B; read-out: Agonist Reference Compounds EC50,132 nM
"c1ccc2cc([C@]34CNC[C@H]3C4)ccc2c1 [Centanafadine, reference compound]",IC50,DAT,144 nM
same,IC50,NET,139 nM
same,IC50,5-HTT,126 nM
O=c1c2c3nc(n2Cc2ccc(Cl)cc2)Oc2cc(ccc2Cl)OCCCCCCn3c(=O)n1CCCO [compound 8],IC50,TRPC5,89.1 nM
same,fold decrease in activity (vs compound 6),"TRPC5; calcium flux, SAR",about 90 fold
O=c1c2c3nc(n2Cc2ncco2)Oc2cccc(c2)OCCCCCCn3c(=O)n1CCCO [compound 15],IC50,TRPC5,> 10000 nM
same,fold decrease in activity (vs compound 6),"TRPC5; calcium flux, SAR",over 1000 fold
O=c1c2c3nc(n2Cc2ccc(Cl)cc2)Oc2cccc(c2)OCCCCCCn3c(=O)n1CCCO [compound 6],IC50,TRPC5,1.1 nM
O=c1c2c3nc(n2Cc2ccc(Cl)cc2)Oc2cccc(c2)OCCCCCCCn3c(=O)n1CCCO [compound 7],IC50,TRPC5,19.2 nM
CC(CO)Cn1c(=O)c2c3nc(n2Cc2ccc(Cl)cc2)Oc2cccc(c2)OCCCCCCn3c1=O (stereo not drawn) [compound 22],IC50,TRPC5,220 nM
O=c1c2c3nc(n2Cc2nccs2)Oc2cccc(c2)OCCCCCCn3c(=O)n1CCCO [compound 14],IC50,TRPC5,1500 nM
same,fold decrease in activity (vs compound 6),"TRPC5; calcium flux, SAR",over 1000 fold
O=c1c2c3nc(n2Cc2cccc(Cl)c2)Oc2cccc(c2)OCCCCCCn3c(=O)n1CCCO [compound 16],IC50,TRPC5,1.8 nM
same,TRPC5 inhibitory activity in words (SAR),TRPC5; calcium flux,tolerated
O=C1NCCCCCn2c(=O)n(CCCO)c(=O)c3c2nc(n3Cc2ccc(Cl)cc2)Oc2cccc1c2 [compound 17],IC50,TRPC5,> 10000 nM
same,TRPC5 inhibitory activity in words (SAR),TRPC5; calcium flux,completely abolishing the activity
"Cc1cc(-c2cc(O)ccc2Cl)cc2nnc(Nc3ccc(OCCN4CCCC4)cc3)nc12 [TG 100572, reference compound]",IC50,LCK,0.76 nM
